Test results taken from article PMC8225905, “Activation and detoxification of cassava cyanogenic glucosides by the whitefly Bemisia tabaci” (Scientific Reports, 2021).

Test system: T1, BtSUC5
T1 construct: full-length ORF expressed in Drosophila S2 cells; secreted protein fraction (culture supernatant) assayed
Assay: LC-MS transglucosidation assay, S2 cell culture supernatant
Type: biochemical, Bemisia tabaci
Conditions: 1 M sucrose as glucosyl donor; phosphate buffer pH 7.0; 25 °C; 30 min; glucosyl acceptor

Question: For CC(C)(C#N)O[C@@H]1O[C@H](CO)[C@@H](O)[C@H](O)[C@H]1O [linamarin], which Km is on record?
Answer: ~500 µM
